Assay results from patent US20200338084A1, “INHIBITORS OF LOW MOLECULAR WEIGHT PROTEIN TYROSINE PHOSPHATASE (LMPTP) AND USES THEREOF” (Sanford Burnham Prebys Medical Discovery Institute, priority 2018, published 2020).

Biological target: T1, human LMPTP-A (Homo sapiens, UniProt P24666)
T1 sequence (P24666 1-158): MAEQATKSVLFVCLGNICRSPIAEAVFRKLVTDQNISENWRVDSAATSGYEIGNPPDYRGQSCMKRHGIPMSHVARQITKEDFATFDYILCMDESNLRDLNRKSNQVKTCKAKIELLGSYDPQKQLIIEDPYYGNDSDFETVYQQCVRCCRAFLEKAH
Assay: Enzyme Assay of Inhibition of LMPTP-A
Type: biochemical
Settings: phosphatase assay, OMFP or pNPP substrate, 50 mM Bis-Tris pH 6.0, 37° C.
Summary of the method: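 Recombinant human LMPTP-A in 50 mM Bis-Tris pH 6.0, 1 mM DTT, 0.01% Triton X-100 at 37° C. Substrate OMFP read continuously by fluorescence (485/525 nm), or pNPP stopped with NaOH and read at 405 nm. IC50 taken from inhibitor concentration versus % activity plots.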

SMILES: Clc1ccc(Cl)c(Cn2cnc(NCc3ccco3)c3ncnc2-3)c1 [[3-(2,5-Dichloro-benzyl)-3H-purin-6-yl]-furan-2-ylmethyl-amine]
- IC50: 1 to 20 µM

SMILES: Fc1ccccc1CNc1ncn(Cc2c(Cl)cccc2Cl)c2ncnc1-2 [[3-(2,6-Dichloro-benzyl)-3H-purin-6-yl]-(2-fluoro-benzyl)-amine]
- IC50: 1 to 20 µM

SMILES: COCCNc1ncn(Cc2c(Cl)cccc2Cl)c2ncnc1-2 [[3-(2,6-Dichloro-benzyl)-3H-purin-6-yl]-(2-methoxy-ethyl)-amine]
- IC50: 1 to 20 µM

SMILES: Fc1cccc(CNc2ncn(Cc3c(Cl)cccc3Cl)c3ncnc2-3)c1 [[3-(2,6-Dichloro-benzyl)-3H-purin-6-yl]-(3-fluoro-benzyl)-amine]
- IC50: 1 to 20 µM

SMILES: COCCCNc1ncn(Cc2c(Cl)cccc2Cl)c2ncnc1-2 [[3-(2,6-Dichloro-benzyl)-3H-purin-6-yl]-(3-methoxy-propyl)-amine]
- IC50: 1 to 20 µM

SMILES: Fc1ccc(CNc2ncn(Cc3c(Cl)cccc3Cl)c3ncnc2-3)cc1 [[3-(2,6-Dichloro-benzyl)-3H-purin-6-yl]-(4-fluoro-benzyl)-amine]
- IC50: 1 to 20 µM

SMILES: Cc1ccc(CNc2ncn(Cc3c(Cl)cccc3Cl)c3ncnc2-3)cc1 [[3-(2,6-Dichloro-benzyl)-3H-purin-6-yl]-(4-methyl-benzyl)-amine]
- IC50: 1 to 20 µM

SMILES: CN(C)c1ncn(Cc2c(Cl)cccc2Cl)c2ncnc1-2 [[3-(2,6-Dichloro-benzyl)-3H-purin-6-yl]-dimethyl-amine]
- IC50: ≥ 20 µM

SMILES: CCNc1ncn(Cc2c(Cl)cccc2Cl)c2ncnc1-2 [[3-(2,6-Dichloro-benzyl)-3H-purin-6-yl]-ethyl-amine]
- IC50: 1 to 20 µM

SMILES: Clc1cccc(Cl)c1Cn1cnc(NCc2ccco2)c2ncnc1-2 [[3-(2,6-Dichloro-benzyl)-3H-purin-6-yl]-furan-2-ylmethyl-amine]
- IC50: 1 to 20 µM

SMILES: CNc1ncn(Cc2c(Cl)cccc2Cl)c2ncnc1-2 [[3-(2,6-Dichloro-benzyl)-3H-purin-6-yl]-methyl-amine]
- IC50: 1 to 20 µM

SMILES: Clc1cccc(Cl)c1Cn1cnc(NCc2cnco2)c2ncnc1-2 [[3-(2,6-Dichloro-benzyl)-3H-purin-6-yl]-oxazol-5-ylmethyl-amine]
- IC50: 1 to 20 µM

SMILES: CCCCCNc1ncn(Cc2c(Cl)cccc2Cl)c2ncnc1-2 [[3-(2,6-Dichloro-benzyl)-3H-purin-6-yl]-pentyl-amine]
- IC50: 1 to 20 µM

SMILES: CCCNc1ncn(Cc2c(Cl)cccc2Cl)c2ncnc1-2 [[3-(2,6-Dichloro-benzyl)-3H-purin-6-yl]-propyl-amine]
- IC50: 1 to 20 µM

SMILES: Clc1cccc(Cl)c1Cn1cnc(NCc2ccccn2)c2ncnc1-2 [[3-(2,6-Dichloro-benzyl)-3H-purin-6-yl]-pyridin-2-ylmethyl-amine]
- IC50: 1 to 20 µM

SMILES: Clc1cccc(Cl)c1Cn1cnc(NCc2cccnc2)c2ncnc1-2 [[3-(2,6-Dichloro-benzyl)-3H-purin-6-yl]-pyridin-3-ylmethyl-amine]
- IC50: 1 to 20 µM

SMILES: Clc1cccc(Cl)c1Cn1cnc(NCc2ccncc2)c2ncnc1-2 [[3-(2,6-Dichloro-benzyl)-3H-purin-6-yl]-pyridin-4-ylmethyl-amine]
- IC50: 1 to 20 µM

SMILES: Clc1cccc(Cl)c1Cn1cnc(NCc2cccs2)c2ncnc1-2 [[3-(2,6-Dichloro-benzyl)-3H-purin-6-yl]-thiophen-2-ylmethyl-amine]
- IC50: 1 to 20 µM

SMILES: Fc1cccc(F)c1Cn1cnc(NCc2ccco2)c2ncnc1-2 [[3-(2,6-Difluoro-benzyl)-3H-purin-6-yl]-furan-2-ylmethyl-amine]
- IC50: 1 to 20 µM

SMILES: Brc1ccccc1Cn1cnc(NCc2ccco2)c2ncnc1-2 [[3-(2-Bromo-benzyl)-3H-purin-6-yl]-furan-2-ylmethyl-amine]
- IC50: 1 to 20 µM

SMILES: Fc1cccc(Cl)c1Cn1cnc(NCc2ccco2)c2ncnc1-2 [[3-(2-Chloro-6-fluoro-benzyl)-3H-purin-6-yl]-furan-2-ylmethyl-amine]
- IC50: 1 to 20 µM

SMILES: Clc1ccccc1Cn1cnc(NCc2ccco2)c2ncnc1-2 [[3-(2-Chloro-benzyl)-3H-purin-6-yl]-furan-2-ylmethyl-amine]
- IC50: ≥ 20 µM

SMILES: Fc1ccccc1Cn1cnc(NCc2ccco2)c2ncnc1-2 [[3-(2-Fluoro-benzyl)-3H-purin-6-yl]-furan-2-ylmethyl-amine]
- IC50: ≥ 20 µM

SMILES: Clc1cccc(Cn2cnc(NCc3ccco3)c3ncnc2-3)c1 [[3-(3-Chloro-benzyl)-3H-purin-6-yl]-furan-2-ylmethyl-amine]
- IC50: ≥ 20 µM

SMILES: Clc1ccc(Cn2cnc(NCc3ccco3)c3ncnc2-3)cc1 [[3-(4-Chloro-benzyl)-3H-purin-6-yl]-furan-2-ylmethyl-amine]
- IC50: ≥ 20 µM

SMILES: Fc1ccc(Cn2cnc(NCc3ccco3)c3ncnc2-3)cc1 [[3-(4-Fluoro-benzyl)-3H-purin-6-yl]-furan-2-ylmethyl-amine]
- IC50: ≥ 20 µM

SMILES: Cc1cccc(Nc2ncn(Cc3c(Cl)cccc3Cl)c3ncnc2-3)c1C [{3-[(2,6-Dichlorophenyl)methyl](3-hydropurin-6-yl)}(2,3-dimethylphenyl)amine]
- IC50: 1 to 20 µM

SMILES: Cc1cccc(C)c1Nc1ncn(Cc2c(Cl)cccc2Cl)c2ncnc1-2 [{3-[(2,6-Dichlorophenyl)methyl](3-hydropurin-6-yl)}(2,6-dimethylphenyl)amine]
- IC50: 1 to 20 µM

SMILES: Fc1ccccc1Nc1ncn(Cc2c(Cl)cccc2Cl)c2ncnc1-2 [{3-[(2,6-Dichlorophenyl)methyl](3-hydropurin-6-yl)}(2-fluorophenyl)amine]
- IC50: 1 to 20 µM

SMILES: COc1ccccc1Nc1ncn(Cc2c(Cl)cccc2Cl)c2ncnc1-2 [{3-[(2,6-Dichlorophenyl)methyl](3-hydropurin-6-yl)}(2-methoxyphenyl)amine]
- IC50: 1 to 20 µM

SMILES: Cc1ccccc1Nc1ncn(Cc2c(Cl)cccc2Cl)c2ncnc1-2 [{3-[(2,6-Dichlorophenyl)methyl](3-hydropurin-6-yl)}(2-methylphenyl)amine]
- IC50: 1 to 20 µM

SMILES: Clc1cccc(Cl)c1Cn1cnc(Nc2ccccc2N2CCOCC2)c2ncnc1-2 [{3-[(2,6-Dichlorophenyl)methyl](3-hydropurin-6-yl)}(2-morpholin-4-ylphenyl)amine]
- IC50: ≥ 20 µM

SMILES: Clc1cccc(Cl)c1Cn1cnc(NCCN2CCCCC2)c2ncnc1-2 [{3-[(2,6-Dichlorophenyl)methyl](3-hydropurin-6-yl)}(2-piperidylethyl)amine]
- IC50: ≥ 20 µM

SMILES: Clc1cccc(Nc2ncn(Cc3c(Cl)cccc3Cl)c3ncnc2-3)c1 [{3-[(2,6-Dichlorophenyl)methyl](3-hydropurin-6-yl)}(3-chlorophenyl)amine]
- IC50: 1 to 20 µM

SMILES: Fc1cccc(Nc2ncn(Cc3c(Cl)cccc3Cl)c3ncnc2-3)c1 [{3-[(2,6-Dichlorophenyl)methyl](3-hydropurin-6-yl)}(3-fluorophenyl)amine]
- IC50: 1 to 20 µM

SMILES: COc1cccc(Nc2ncn(Cc3c(Cl)cccc3Cl)c3ncnc2-3)c1 [{3-[(2,6-Dichlorophenyl)methyl](3-hydropurin-6-yl)}(3-methoxyphenyl)amine]
- IC50: 1 to 20 µM

SMILES: Cc1cccc(Nc2ncn(Cc3c(Cl)cccc3Cl)c3ncnc2-3)c1 [{3-[(2,6-Dichlorophenyl)methyl](3-hydropurin-6-yl)}(3-methylphenyl)amine]
- IC50: 1 to 20 µM

SMILES: Clc1cccc(Cl)c1Cn1cnc(Nc2ccc(Br)cc2)c2ncnc1-2 [{3-[(2,6-Dichlorophenyl)methyl](3-hydropurin-6-yl)}(4-bromophenyl)amine]
- IC50: 1 to 20 µM

SMILES: Fc1ccc(Nc2ncn(Cc3c(Cl)cccc3Cl)c3ncnc2-3)cc1 [{3-[(2,6-Dichlorophenyl)methyl](3-hydropurin-6-yl)}(4-fluorophenyl)amine]
- IC50: 1 to 20 µM

SMILES: Cc1ccc(Nc2ncn(Cc3c(Cl)cccc3Cl)c3ncnc2-3)cc1 [{3-[(2,6-Dichlorophenyl)methyl](3-hydropurin-6-yl)}(4-methylphenyl)amine]
- IC50: 1 to 20 µM

SMILES: Clc1cccc(Cl)c1Cn1cnc(Nc2ccc(N3CCOCC3)cc2)c2ncnc1-2 [{3-[(2,6-Dichlorophenyl)methyl](3-hydropurin-6-yl)}(4-morpholin-4-ylphenyl)amine]
- IC50: 1 to 20 µM

SMILES: O=[N+]([O-])c1ccc(Nc2ncn(Cc3c(Cl)cccc3Cl)c3ncnc2-3)cc1 [{3-[(2,6-Dichlorophenyl)methyl](3-hydropurin-6-yl)}(4-nitrophenyl)amine]
- IC50: 1 to 20 µM

SMILES: CCCc1ccc(Nc2ncn(Cc3c(Cl)cccc3Cl)c3ncnc2-3)cc1 [{3-[(2,6-Dichlorophenyl)methyl](3-hydropurin-6-yl)}(4-propylphenyl)amine]
- IC50: 1 to 20 µM

SMILES: CC(C)(C)c1ccccc1Nc1ncn(Cc2c(Cl)cccc2Cl)c2ncnc1-2 [{3-[(2,6-Dichlorophenyl)methyl](3-hydropurin-6-yl)}[2-(tert-butyl)phenyl]amine]
- IC50: ≥ 20 µM

SMILES: CC(C)(C)c1cccc(Nc2ncn(Cc3c(Cl)cccc3Cl)c3ncnc2-3)c1 [{3-[(2,6-Dichlorophenyl)methyl](3-hydropurin-6-yl)}[3-(tert-butyl)phenyl]amine]
- IC50: 1 to 20 µM

SMILES: Clc1cccc(Cl)c1Cn1cnc(Nc2ccccc2)c2ncnc1-2 [{3-[(2,6-Dichlorophenyl)methyl](3-hydropurin-6-yl)}phenylamine]
- IC50: 1 to 20 µM

SMILES: Clc1ccccc1Nc1ncn(Cc2c(Cl)cccc2Cl)c2ncnc1-2 [{3-[(2,6-Dichlorophenyl)methyl](3-hydropurine-6-yl)}(2-chlorophenyl)amine]
- IC50: ≤ 1 µM

SMILES: COc1ccc(CNc2ncn(Cc3c(Cl)cccc3Cl)c3ncnc2-3)cc1 [{3-[(2,6-dichlorophenyl)methyl](3-hydropurin-6-yl)}[(4-methoxyphenyl)methyl]amine]
- IC50: 1 to 20 µM

SMILES: Cc1ccc(S(=O)(=O)Nc2ncn(Cc3c(Cl)cccc3Cl)c3ncnc2-3)cc1 [{3-[(2,6-dichlorophenyl)methyl](3-hydropurin-6-yl)}[(4-methylphenyl)sulfonyl]amine]
- IC50: ≥ 20 µM

SMILES: Cc1ccc(CNc2ncn(Cc3c(Cl)cccc3Cl)c3ncnc2-3)o1 [{3-[(2,6-dichlorophenyl)methyl](3-hydropurin-6-yl)}[(5-methyl(2-furyl))methyl]amine]
- IC50: 1 to 20 µM
